ChEMBL document CHEMBL1157712, “Hit to lead account of the discovery of bisbenzamide and related ureidobenzamide inhibitors of Rho kinase” (J Med Chem, 2010)
Each block holds one molecule with its values, some of them ahead of it.

Columns and labels:
[1] = molecular target: Lymphokine-activated killer T-cell-originated protein kinase (Homo sapiens) (UniProt Q96KB5); experiment: Inhibition of PBK at 3 uM relative to control; values are per cent of control
[2] = molecular target: Glycogen synthase kinase-3 beta (Homo sapiens) (UniProt P49841); experiment: Inhibition of GSK3-beta at 3 uM relative to control; values are per cent of control
[3] = molecular target: MAP kinase-interacting serine/threonine-protein kinase 2 (Homo sapiens) (UniProt Q9HBH9); experiment: Inhibition of MNK2 at 3 uM relative to control; values are per cent of control
[4] = molecular target: [Pyruvate dehydrogenase (acetyl-transferring)] kinase isozyme 1, mitochondrial (Homo sapiens) (UniProt Q15118); experiment: Inhibition of PDK1 at 3 uM relative to control; values are per cent of control
[5] = molecular target: T1, Serine/threonine-protein kinase PLK1 (Homo sapiens, UniProt P53350); experiment: Inhibition of PLK1 at 3 uM relative to control; values are per cent of control
[6] = molecular target: Serine/threonine-protein kinase N2 (Homo sapiens, UniProt Q16513); experiment: Inhibition of PRK2; values are per cent of control
[7] = molecular target: Casein kinase I isoform alpha (Homo sapiens) (UniProt P48729); experiment: Inhibition of CK1 at 3 uM relative to control; values are per cent of control
[8] = molecular target: Ribosomal protein S6 kinase beta-1 (Homo sapiens) (UniProt P23443); experiment: Inhibition of S6K1 at 3 uM relative to control; values are per cent of control
[9] = molecular target: cGMP-dependent protein kinase 1 (Homo sapiens, UniProt Q13976); experiment: Inhibition of PRKG1
[10] = molecular target: Rho-associated protein kinase 2 (Homo sapiens, UniProt O75116)
Description: Inhibition of human ROCK2 by homogenous luciferase assay

[11] = molecular target: Dual specificity mitogen-activated protein kinase kinase 1 (Homo sapiens) (UniProt Q02750); experiment: Inhibition of MKK1 at 3 uM relative to control; values are per cent of control
[12] = molecular target: Ribosomal protein S6 kinase alpha-5 (Homo sapiens) (UniProt O75582); experiment: Inhibition of MSK1 at 3 uM relative to control; values are per cent of control
[13] = Inhibition of CK2 at 3 uM relative to control; values are per cent of control
[14] = Inhibition of PKA at 3 uM relative to control; values are per cent of control
[15] = molecular target: Tyrosine-protein kinase JAK3 (Homo sapiens) (UniProt P52333); details: 3 to 6 uM
Description: Inhibition of JAK3 at 3 to 6 uM relative to control

[16] = molecular target: Ribosomal protein S6 kinase beta-1 (Homo sapiens) (UniProt P23443); details: 3 to 6 uM
Description: Inhibition of S6K1 at 3 to 6 uM relative to control

[17] = molecular target: Serine/threonine-protein kinase Chk2 (Homo sapiens) (UniProt O96017); details: 3 to 6 uM
Description: Inhibition of CHK2 at 3 to 6 uM relative to control

Cytochrome P450 1A2 = molecular target: T2, Cytochrome P450 1A2 (Homo sapiens, UniProt P05177); experiment: Inhibition of human CYP1A2 by fluorescence assay; format: ADME
T2 sequence (P05177 whole entry): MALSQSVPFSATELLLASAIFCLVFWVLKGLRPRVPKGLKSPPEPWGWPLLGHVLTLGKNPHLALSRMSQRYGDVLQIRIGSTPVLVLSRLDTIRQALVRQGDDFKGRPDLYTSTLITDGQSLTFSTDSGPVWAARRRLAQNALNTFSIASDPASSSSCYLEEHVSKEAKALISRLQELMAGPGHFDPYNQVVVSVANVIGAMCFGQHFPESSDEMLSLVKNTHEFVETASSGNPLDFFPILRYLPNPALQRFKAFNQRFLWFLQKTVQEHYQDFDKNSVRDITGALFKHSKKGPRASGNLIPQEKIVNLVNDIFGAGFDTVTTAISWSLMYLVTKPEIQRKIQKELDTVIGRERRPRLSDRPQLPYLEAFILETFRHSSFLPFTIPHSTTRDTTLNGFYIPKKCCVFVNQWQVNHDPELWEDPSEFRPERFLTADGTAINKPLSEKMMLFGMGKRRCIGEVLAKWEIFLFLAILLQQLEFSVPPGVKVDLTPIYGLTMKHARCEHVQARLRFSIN

[18] = molecular target: Receptor-interacting serine/threonine-protein kinase 4 (Homo sapiens) (UniProt P57078); details: 3 to 6 uM
Description: Inhibition of ANKRD3 at 3 to 6 uM relative to control

[19] = molecular target: Glycogen synthase kinase-3 beta (Homo sapiens) (UniProt P49841); details: 3 to 6 uM
Description: Inhibition of GSK3-beta at 3 to 6 uM relative to control

[20] = molecular target: Serine/threonine-protein kinase Nek6 (Homo sapiens) (UniProt Q9HC98); details: 3 to 6 uM
Description: Inhibition of NEK6 at 3 to 6 uM relative to control

[21] = molecular target: MAP/microtubule affinity-regulating kinase 3 (Homo sapiens) (UniProt P27448); details: 3 to 6 uM
Description: Inhibition of MARK3 at 3 to 6 uM relative to control

[22] = molecular target: Death-associated protein kinase 1 (Homo sapiens) (UniProt P53355); details: 3 to 6 uM
Description: Inhibition of DAPK1 at 3 to 6 uM relative to control

[23] = molecular target: Serine/threonine-protein kinase 26 (Homo sapiens, UniProt Q9P289); experiment: Inhibition of MST4
[24] = molecular target: Serine/threonine-protein kinase pim-2 (Homo sapiens, UniProt Q9P1W9); experiment: Inhibition of PIM2
[25] = molecular target: Epithelial discoidin domain-containing receptor 1 (Homo sapiens) (UniProt Q08345); details: 3 to 6 uM
Description: Inhibition of DDR1 at 3 to 6 uM relative to control

[26] = molecular target: Insulin-like growth factor 1 receptor (Homo sapiens) (UniProt P08069); details: 3 to 6 uM
Description: Inhibition of IGF1R at 3 to 6 uM relative to control

Cytochrome P450 2C19 = Cytochrome P450 2C19 (Homo sapiens, UniProt P33261); experiment: Inhibition of human CYP2C19 by fluorescence assay; format: ADME
[27] = molecular target: T1, Serine/threonine-protein kinase PLK1; details: 3 to 6 uM
Description: Inhibition of PLK1 at 3 to 6 uM relative to control

[28] = molecular target: Serine/threonine-protein kinase mTOR (Homo sapiens) (UniProt P42345); details: 3 to 6 uM
Description: Inhibition of mTOR at 3 to 6 uM relative to control

[29] = molecular target: MAP kinase-interacting serine/threonine-protein kinase 1 (Homo sapiens) (UniProt Q9BUB5); details: 3 to 6 uM
Description: Inhibition of MNK1 at 3 to 6 uM relative to control

[30] = Permeability from basolateral to apical side in human Caco-2 cells; format: ADME, cell-based; details: read-out: permeability
[31] = molecular target: Voltage-gated inwardly rectifying potassium channel KCNH2 (Homo sapiens, UniProt Q12809); experiment: Inhibition of human ERG potassium channel up to 70 uM

T1 sequence (P53350 whole entry): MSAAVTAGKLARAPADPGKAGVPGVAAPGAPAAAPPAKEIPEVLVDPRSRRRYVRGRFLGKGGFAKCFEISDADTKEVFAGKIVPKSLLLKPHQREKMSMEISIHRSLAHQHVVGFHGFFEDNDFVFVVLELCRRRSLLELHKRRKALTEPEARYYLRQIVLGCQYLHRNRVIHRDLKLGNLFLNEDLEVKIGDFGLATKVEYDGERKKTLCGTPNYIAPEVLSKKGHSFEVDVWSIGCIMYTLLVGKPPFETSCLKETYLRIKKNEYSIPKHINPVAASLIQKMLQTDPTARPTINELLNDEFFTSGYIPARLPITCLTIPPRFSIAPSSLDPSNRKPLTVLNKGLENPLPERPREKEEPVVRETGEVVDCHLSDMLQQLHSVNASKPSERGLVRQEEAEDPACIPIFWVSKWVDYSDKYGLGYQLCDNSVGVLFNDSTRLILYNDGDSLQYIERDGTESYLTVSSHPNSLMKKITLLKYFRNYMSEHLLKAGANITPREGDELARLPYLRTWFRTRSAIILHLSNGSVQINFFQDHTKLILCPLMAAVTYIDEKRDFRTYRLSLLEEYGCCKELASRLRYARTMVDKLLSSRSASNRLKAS
Chain of Rho-associated protein kinase 2 (O75116 whole entry): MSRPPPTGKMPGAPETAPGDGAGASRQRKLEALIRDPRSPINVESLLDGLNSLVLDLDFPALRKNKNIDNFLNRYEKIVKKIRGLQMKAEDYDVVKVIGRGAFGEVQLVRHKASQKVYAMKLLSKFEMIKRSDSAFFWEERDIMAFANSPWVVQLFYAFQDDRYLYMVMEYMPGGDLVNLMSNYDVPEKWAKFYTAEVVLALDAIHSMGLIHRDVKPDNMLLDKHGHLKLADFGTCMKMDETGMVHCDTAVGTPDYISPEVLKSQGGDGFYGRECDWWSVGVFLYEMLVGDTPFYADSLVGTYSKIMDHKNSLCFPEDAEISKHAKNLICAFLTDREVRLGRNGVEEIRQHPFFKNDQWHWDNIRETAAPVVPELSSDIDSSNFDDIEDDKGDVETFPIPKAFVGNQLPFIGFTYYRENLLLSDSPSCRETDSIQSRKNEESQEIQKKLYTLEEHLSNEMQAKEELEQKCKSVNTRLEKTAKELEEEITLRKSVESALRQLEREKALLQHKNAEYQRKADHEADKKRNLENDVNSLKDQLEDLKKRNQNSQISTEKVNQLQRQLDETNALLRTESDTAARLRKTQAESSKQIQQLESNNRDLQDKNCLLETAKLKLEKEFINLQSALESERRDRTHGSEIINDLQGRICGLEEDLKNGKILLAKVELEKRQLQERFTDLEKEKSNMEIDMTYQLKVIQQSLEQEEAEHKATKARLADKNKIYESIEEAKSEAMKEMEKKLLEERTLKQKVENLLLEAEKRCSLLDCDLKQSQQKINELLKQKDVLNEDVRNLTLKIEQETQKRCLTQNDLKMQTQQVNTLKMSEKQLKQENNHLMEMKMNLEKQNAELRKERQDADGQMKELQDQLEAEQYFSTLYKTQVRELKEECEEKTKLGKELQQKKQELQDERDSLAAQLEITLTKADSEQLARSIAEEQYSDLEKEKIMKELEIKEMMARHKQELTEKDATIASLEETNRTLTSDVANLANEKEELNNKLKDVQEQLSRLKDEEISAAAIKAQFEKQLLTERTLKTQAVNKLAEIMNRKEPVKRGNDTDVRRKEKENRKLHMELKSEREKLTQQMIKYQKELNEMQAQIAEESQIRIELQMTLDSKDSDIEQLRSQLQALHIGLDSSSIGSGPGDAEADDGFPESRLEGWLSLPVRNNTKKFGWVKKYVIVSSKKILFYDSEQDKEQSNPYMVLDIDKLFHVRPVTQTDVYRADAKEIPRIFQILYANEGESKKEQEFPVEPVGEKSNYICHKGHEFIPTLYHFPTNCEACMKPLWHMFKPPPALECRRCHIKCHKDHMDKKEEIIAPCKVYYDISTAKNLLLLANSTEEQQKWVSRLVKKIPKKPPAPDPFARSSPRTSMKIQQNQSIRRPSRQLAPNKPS
Chain of cGMP-dependent protein kinase 1 (Q13976 whole entry): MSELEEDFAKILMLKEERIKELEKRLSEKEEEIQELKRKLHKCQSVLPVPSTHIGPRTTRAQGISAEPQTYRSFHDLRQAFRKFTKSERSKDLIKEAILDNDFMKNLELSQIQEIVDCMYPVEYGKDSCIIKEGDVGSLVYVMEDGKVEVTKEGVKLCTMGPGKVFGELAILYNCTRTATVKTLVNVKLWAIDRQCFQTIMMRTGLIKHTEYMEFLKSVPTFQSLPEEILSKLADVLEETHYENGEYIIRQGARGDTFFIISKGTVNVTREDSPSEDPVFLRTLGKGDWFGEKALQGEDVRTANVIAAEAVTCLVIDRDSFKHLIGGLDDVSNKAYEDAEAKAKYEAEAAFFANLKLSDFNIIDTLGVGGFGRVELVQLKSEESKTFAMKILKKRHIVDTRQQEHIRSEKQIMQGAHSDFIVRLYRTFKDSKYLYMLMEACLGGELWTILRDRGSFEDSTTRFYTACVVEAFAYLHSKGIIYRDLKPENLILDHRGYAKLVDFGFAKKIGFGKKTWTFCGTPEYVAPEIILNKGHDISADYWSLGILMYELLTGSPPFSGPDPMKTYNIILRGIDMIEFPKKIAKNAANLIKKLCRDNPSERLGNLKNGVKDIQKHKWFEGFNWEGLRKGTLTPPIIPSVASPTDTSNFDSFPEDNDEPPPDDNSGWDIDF
Chain of Glycogen synthase kinase-3 beta (Homo sapiens) (P49841 whole entry, looked up): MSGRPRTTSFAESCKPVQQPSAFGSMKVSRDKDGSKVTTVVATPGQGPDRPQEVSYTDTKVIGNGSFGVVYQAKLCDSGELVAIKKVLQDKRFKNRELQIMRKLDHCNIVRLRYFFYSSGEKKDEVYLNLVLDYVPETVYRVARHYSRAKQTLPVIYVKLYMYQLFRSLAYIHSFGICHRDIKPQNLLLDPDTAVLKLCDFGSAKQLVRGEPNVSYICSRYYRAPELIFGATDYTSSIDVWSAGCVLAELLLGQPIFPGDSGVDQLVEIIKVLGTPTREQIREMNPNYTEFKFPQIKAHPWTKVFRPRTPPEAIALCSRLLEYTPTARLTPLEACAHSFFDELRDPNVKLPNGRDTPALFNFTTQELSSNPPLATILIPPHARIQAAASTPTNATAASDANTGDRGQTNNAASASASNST
Chain of Ribosomal protein S6 kinase beta-1 (Homo sapiens) (P23443 whole entry, looked up): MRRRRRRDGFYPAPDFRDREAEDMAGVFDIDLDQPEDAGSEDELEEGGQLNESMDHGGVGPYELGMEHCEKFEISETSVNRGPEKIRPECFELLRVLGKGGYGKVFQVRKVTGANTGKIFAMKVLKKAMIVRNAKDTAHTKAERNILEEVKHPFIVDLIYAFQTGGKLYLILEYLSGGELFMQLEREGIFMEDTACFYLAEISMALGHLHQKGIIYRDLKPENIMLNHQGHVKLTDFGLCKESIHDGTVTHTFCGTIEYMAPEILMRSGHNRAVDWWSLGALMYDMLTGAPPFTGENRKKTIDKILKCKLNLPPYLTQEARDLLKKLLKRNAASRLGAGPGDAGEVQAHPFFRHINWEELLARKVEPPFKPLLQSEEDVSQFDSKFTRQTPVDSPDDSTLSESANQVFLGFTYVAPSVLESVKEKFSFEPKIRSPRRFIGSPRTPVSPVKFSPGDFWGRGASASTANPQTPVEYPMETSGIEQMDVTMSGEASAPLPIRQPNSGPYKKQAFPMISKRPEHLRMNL
Chain of Serine/threonine-protein kinase Chk2 (Homo sapiens) (O96017 whole entry): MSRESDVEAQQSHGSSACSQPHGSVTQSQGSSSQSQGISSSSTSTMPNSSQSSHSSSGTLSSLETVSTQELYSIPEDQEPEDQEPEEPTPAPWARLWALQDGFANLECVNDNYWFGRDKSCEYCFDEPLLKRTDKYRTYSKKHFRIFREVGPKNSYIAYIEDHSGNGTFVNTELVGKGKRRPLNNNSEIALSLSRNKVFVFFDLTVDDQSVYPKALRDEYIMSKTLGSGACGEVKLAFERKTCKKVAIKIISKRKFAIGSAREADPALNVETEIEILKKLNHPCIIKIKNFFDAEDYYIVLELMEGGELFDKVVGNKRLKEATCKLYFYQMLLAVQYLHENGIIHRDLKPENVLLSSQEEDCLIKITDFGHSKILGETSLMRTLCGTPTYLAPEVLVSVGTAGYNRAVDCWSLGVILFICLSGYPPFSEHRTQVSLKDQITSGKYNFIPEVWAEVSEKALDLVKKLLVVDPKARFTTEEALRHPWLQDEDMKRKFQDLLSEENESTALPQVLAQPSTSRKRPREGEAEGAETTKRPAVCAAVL
Chain of MAP kinase-interacting serine/threonine-protein kinase 2 (Homo sapiens) (Q9HBH9 whole entry, looked up): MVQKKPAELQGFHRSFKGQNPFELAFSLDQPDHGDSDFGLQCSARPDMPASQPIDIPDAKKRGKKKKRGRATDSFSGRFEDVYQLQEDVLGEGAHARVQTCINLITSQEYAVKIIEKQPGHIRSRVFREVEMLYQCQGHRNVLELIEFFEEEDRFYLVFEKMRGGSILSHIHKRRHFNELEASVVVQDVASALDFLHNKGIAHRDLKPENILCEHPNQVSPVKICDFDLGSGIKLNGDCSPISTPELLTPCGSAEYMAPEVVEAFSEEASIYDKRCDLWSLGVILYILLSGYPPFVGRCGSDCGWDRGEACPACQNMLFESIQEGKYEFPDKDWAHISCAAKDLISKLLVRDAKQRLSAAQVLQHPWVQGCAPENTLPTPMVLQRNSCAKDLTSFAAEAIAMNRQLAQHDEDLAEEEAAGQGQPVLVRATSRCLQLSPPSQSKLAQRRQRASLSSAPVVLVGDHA
Chain of Casein kinase I isoform alpha (Homo sapiens) (P48729 2-337 limits assumed): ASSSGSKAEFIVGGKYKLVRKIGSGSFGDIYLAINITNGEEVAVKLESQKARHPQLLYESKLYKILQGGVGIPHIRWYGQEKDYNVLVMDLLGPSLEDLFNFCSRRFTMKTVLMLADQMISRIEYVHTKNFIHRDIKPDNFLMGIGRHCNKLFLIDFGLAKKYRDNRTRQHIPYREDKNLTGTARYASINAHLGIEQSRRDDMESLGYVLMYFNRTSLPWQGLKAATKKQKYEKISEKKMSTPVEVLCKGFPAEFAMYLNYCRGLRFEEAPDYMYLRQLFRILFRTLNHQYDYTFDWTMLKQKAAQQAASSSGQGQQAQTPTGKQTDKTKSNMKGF

- residual activity [2]: > 50%
- residual activity [3]: > 50%
- residual activity [4]: > 50%
- residual activity [5]: > 50%
- residual activity [6]: 33%
- residual activity [7]: > 50%
- residual activity [8]: > 50%
- IC50 [9]: 3 µM
- IC50 [10]: 0.004 µM
- residual activity [11]: > 50%
- residual activity [12]: > 50%
- residual activity [13]: > 50%
- residual activity [14]: > 50%
Structure (SMILES): NC(=O)c1ccc(NC(=O)NCc2cccc(C(=O)Nc3ccc4c(c3)CNCC4)c2)cc1
- residual activity [1]: > 50%

- residual activity [15]: > 50%
- residual activity [16]: > 50%
- residual activity [17]: > 50%
- IC50 (Cytochrome P450 1A2): > 30 µM
- residual activity [18]: > 50%
- residual activity [19]: > 50%
- residual activity [20]: > 50%
- residual activity [21]: > 50%
- IC50 [23]: > 10 µM
- IC50 [24]: > 10 µM
- residual activity [25]: > 50%
- residual activity [26]: > 50%
- IC50 [9]: 5.6 µM
- IC50 [10]: 0.033 µM
- IC50 (Cytochrome P450 2C19): > 30 µM
- residual activity [27]: > 50%
- residual activity [28]: > 50%
- residual activity [29]: > 50%
- Papp B→A [30]: 5.4 ×10⁻⁶ cm/s
Structure (SMILES): COc1ccc(C(=O)NCc2cccc(C(=O)Nc3ccc4c(c3)CNCC4)c2)cc1OC
- residual activity [22]: > 50%
- inhibition (INH) [31]: Not Active
